# From patent US8759366B2, “Aminopyrimidines as SYK inhibitors” (Merck Sharp & Dohme Corp., priority 2009, dated 2014)
# Where a name gives a salt, the structure may show the parent alone.
# Target: rhSYK (Homo sapiens (Human), UniProt P43405)
# Conditions: read-out: rhSYK activity
row,IC50 [nM],Structure (SMILES)
1,< 100,"Cc1cc(Nc2nccc(C(F)(F)F)n2)cc(-c2cnc(C3(O)CCC(=O)CC3)s2)c1 [Example 7, 4-hydroxy-4-[5-(3-methyl-5-{[4-(trifluoromethyl)pyrimidin-2-yl]amino}phenyl)-1,3-thiazol-2-yl]cyclohexanone]"
2,< 100,Cc1cc(Nc2nccc(C(F)(F)F)n2)cc(-c2cnc(C3(O)CCCC(=O)C3(C)C)s2)c1 (centres unmarked) [Example 8B-1]
3,< 100,Cc1cc(Nc2nccc(C(F)(F)F)n2)cc(-c2cnc(C3(O)CCCC(O)C3(C)C)s2)c1 (centres unmarked) [Example 8B-3]
4,100 to 1000,Cc1cc(Nc2nccc(C(F)(F)F)n2)cc(-c2cnc(C(C)(O)c3ccc(C(C)(C)O)cc3)s2)c1 (centres unmarked) [Example 9-1]
5,< 100,"Cc1cc(Nc2nccc(C(F)(F)F)n2)cc(-c2cnc(C3(O)CCNC(=O)CC3)s2)c1 (centres unmarked) [Example 10, 5-Hydroxy-5-[5-(3-methyl-5-{[4-(trifluoromethyl)pyrimidin-2-yl]amino}phenyl)-1,3-thiazol-2-yl]azepan-2-one]"
6,< 100,Cc1cc(Nc2nccc(C(F)(F)F)n2)cc(-c2cnc(C3=CC(=O)NCCC3)s2)c1 [Example 10B-2]
7,< 100,"O=C(c1ncc(-c2cccc(Nc3nccc(C(F)(F)F)n3)c2)s1)C1CC1 [Example 11, Cyclopropyl[5-(3-{[4-(trifluoromethyl)pyrimidin-2-yl]amino}phenyl)-1,3-thiazol-2-yl]methanone]"
8,< 100,"OC(c1ncc(-c2cccc(Nc3nccc(C(F)(F)F)n3)c2)s1)(C1CC1)C(F)(F)F (centres unmarked) [Example 12, 1-Cyclopropyl-2,2,2-trifluoro-1-[5-(3-{[4-(trifluoromethyl)pyrimidin-2-yl]amino}phenyl)-1,3-thiazol-2-yl]ethanol]"
9,< 100,"Cc1cc(Nc2nccc(C(F)(F)F)n2)cc(-c2cnc(C(C)C)s2)c1 [Example 13, N-{3-methyl-5-[2-(1-methylethyl)-1,3-thiazol-5-yl]phenyl}-4-(trifluoromethyl)pyrimidin-2-amine]"
10,100 to 1000,"CC(C)(C)OC(=O)N1CCC(C(C)(O)c2ncc(-c3cccc(Nc4nccc(C(F)(F)F)n4)c3)s2)CC1 (centres unmarked) [Example 15(1), tert-butyl 4-{1-hydroxy-1-[5-(3-{[4-(trifluoromethyl)pyrimidin-2-yl]amino}phenyl)-1,3-thiazol-2-yl]ethyl}piperidine-1-carboxylate]"
11,< 100,"CC(O)(c1ncc(-c2cccc(Nc3nccc(C(F)(F)F)n3)c2)s1)C1CCNCC1 (centres unmarked) [Example 15(2), 1-(piperidin-4-yl)-1-[5-(3-{[4-(trifluoromethyl)pyrimidin-2-yl]amino}phenyl)-1,3-thiazol-2-yl]ethanol]"
12,< 100,"CC(=O)Nc1cc(Nc2nccc(C(F)(F)F)n2)cc(-c2cnc(C3(O)CCC3)s2)c1 [Example 16, N-(3-[2-(1-hydroxycyclobutyl)-1,3-thiazol-5-yl]-5-{[4-(trifluoromethyl)pyrimidin-2-yl]amino}phenyl)acetamide]"
13,< 100,"Nc1cc(Nc2nccc(C(F)(F)F)n2)cc(-c2cnc(C3(O)CCC3)s2)c1 [Example 17, 1-[5-(3-amino-5-{[4-(trifluoromethyl)pyrimidin-2-yl]amino}phenyl)-1,3-thiazol-2-yl]cyclobutanol]"
14,100 to 1000,"O=[N+]([O-])c1cc(Nc2nccc(C(F)(F)F)n2)cc(-c2cnc(C3(O)CCC3)s2)c1 [Example 18, 1-[5-(3-nitro-5-{[4-(trifluoromethyl)pyrimidin-2-yl]amino}phenyl)-1,3-thiazol-2-yl]cyclobutanol]"
15,< 100,"O=C(Nc1cc(Nc2nccc(C(F)(F)F)n2)cc(-c2cnc(C3(O)CCC3)s2)c1)NC1CCCC1 [Example 19, 1-cyclopentyl-3-(3-[2-(1-hydroxycyclobutyl)-1,3-thiazol-5-yl]-5-{[4-(trifluoromethyl)pyrimidin-2-yl]amino}phenyl)urea]"
16,< 100,"CC(C)(CO)c1ncc(-c2cccc(Nc3nccc(C(F)(F)F)n3)c2)s1 [Example 21, 2-methyl-2-[5-(3-{[4-(trifluoromethyl)pyrimidin-2-yl]amino}phenyl)-1,3-thiazol-2-yl]propan-1-ol]"
17,< 100,"OC(c1ncc(-c2cc(Nc3nccc(C(F)(F)F)n3)cc(N3CCOCC3)c2)s1)(C1CC1)C1CC1 [Example 24, dicyclopropyl{5-[3-(morpholin-4-yl)-5-{[4-(trifluoromethyl)pyrimidin-2-yl]amino}phenyl]-1,3-thiazol-2-yl}methanol]"
18,< 100,"Cc1cc(Nc2nccc(C(F)(F)F)n2)cc(-c2cnc([C@]3(F)CC[C@@H](C(=O)O)CC3)s2)c1 [Example 26, cis-4-Fluoro-4-[5-(3-methyl-5-{[4-(trifluoromethyl)pyrimidin-2-yl]amino}phenyl)-1,3-thiazol-2-yl]cyclohexanecarboxylic acid]"

row,IC50 [nM],Structure (SMILES)
1,< 100,"OC1(c2ncc(-c3cc(NCC(F)(F)F)cc(Nc4nccc(C(F)(F)F)n4)c3)s2)CCC1 [Example 27, 1-[5-(3-[(2,2,2-trifluoroethyl)amino]-5-{[4-(trifluoromethyl)pyrimidin-2-yl]amino}phenyl)-1,3-thiazol-2-yl]cyclobutanol]"
2,< 100,"OC1(c2ncc(-c3cc(Nc4nccc(C(F)(F)F)n4)cc(C(F)F)c3)s2)CCC1 [Example 28, 1-{5-[3-(difluoromethyl)-5-{[4-(trifluoromethyl)pyrimidin-2-yl]amino}phenyl]-1,3-thiazol-2-yl}cyclobutanol]"
3,< 100,"C#Cc1cc(Nc2nccc(C(F)(F)F)n2)cc(-c2cnc(C(C)(C)O)s2)c1 [Example 29, 2-[5-(3-ethynyl-5-{[4-(trifluoromethyl)pyrimidin-2-yl]amino}phenyl)-1,3-thiazol-2-yl]propan-2-ol]"
4,< 100,"CCc1cc(Nc2nccc(C(F)(F)F)n2)cc(-c2cnc(C(C)(C)O)s2)c1 [Example 30, 2-[5-(3-ethyl-5-{[4-(trifluoromethyl)pyrimidin-2-yl]amino}phenyl)-1,3-thiazol-2-yl]propan-2-ol]"
5,< 100,"CC(C)(O)c1ncc(-c2cc(Nc3nccc(C(F)(F)F)n3)cc(C3CC3)c2)s1 [Example 31, 2-[5-(3-cyclopropyl-5-{[4-(trifluoromethyl)pyrimidin-2-yl]amino}phenyl)-1,3-thiazol-2-yl]propan-2-ol]"
6,100 to 1000,"CCOC(=O)C1CC=C(c2ncc(-c3cc(C)cc(Nc4nccc(C(F)(F)F)n4)c3)s2)CC1 (centres unmarked) [Example 34, ethyl 4-[5-(3-methyl-5-{[4-(trifluoromethyl)pyrimidin-2-yl]amino}phenyl)-1,3-thiazol-2-yl]cyclohex-3-ene-1-carboxylate]"
7,100 to 1000,"CCOC(=O)C1CCC(c2ncc(-c3cc(C)cc(Nc4nccc(C(F)(F)F)n4)c3)s2)CC1 (centres unmarked) [Example 35, ethyl 4-[5-(3-methyl-5-{[4-(trifluoromethyl)pyrimidin-2-yl]amino}phenyl)-1,3-thiazol-2-yl]cyclohexanecarboxylate]"
8,< 100,"Cc1cc(Nc2nccc(C(F)(F)F)n2)cc(-c2cnc(C3CCC(C(=O)O)CC3)s2)c1 (centres unmarked) [Example 36, 4-[5-(3-methyl-5-{[4-(trifluoromethyl)pyrimidin-2-yl]amino}phenyl)-1,3-thiazol-2-yl]cyclohexanecarboxylic acid]"
9,< 100,"Cc1cc(Nc2nccc(C(F)(F)F)n2)cc(-c2cnc([C@]3(O)CC[C@@H](c4noc(=O)[nH]4)CC3)s2)c1 [Example 39, 3-{cis-4-Hydroxy-4-[5-(3-methyl-5-{[4-(trifluoromethyl)pyrimidin-2-yl]amino}phenyl)-1,3-thiazol-2-yl]cyclohexyl}-1,2,4-oxadiazol-5(4H)-one]"
10,< 100,"COC1(c2ncc(-c3cc(C)cc(Nc4nccc(C(F)(F)F)n4)c3)s2)CCC(C(=O)O)CC1 (stereo not drawn) [Example 40(1), 2-({3-[2-(cis-4-Carboxy-1-methoxycyclohexyl)-1,3-thiazol-5-yl]-5-methylphenyl}amino)-4-(trifluoromethyl)pyrimidin-1-ium trifluoroacetate]"
11,< 100,"Cc1cc(Nc2nccc(C(F)(F)F)n2)cc(-c2cnc(C3(O)CCC(N)(C(=O)O)CC3)s2)c1 (centres unmarked) [Example 41, 1-amino-4-hydroxy-4-[5-(3-methyl-5-{[4-(trifluoromethyl)pyrimidin-2-yl]amino}phenyl)-1,3-thiazol-2-yl]cyclohexanecarboxylic acid]"
12,< 100,"Cc1cc(Nc2nccc(C(F)(F)F)n2)cc(-c2cnc(C3(O)CCN(C(=O)OC(C)(C)C)CC3)s2)c1 [Example 45, tert-butyl 4-hydroxy-4-[5-(3-methyl-5-{[4-(trifluoromethyl)pyrimidin-2-yl]amino}phenyl)-1,3-thiazol-2-yl]piperidine-1-carboxylate]"
13,< 100,"Cc1cc(Nc2nccc(C(F)(F)F)n2)cc(-c2cnc(C3(O)CCNCC3)s2)c1 [Example 46, 4-[5-(3-methyl-5-{[4-(trifluoromethyl)pyrimidin-2-yl]amino}phenyl)-1,3-thiazol-2-yl]piperidin-4-ol]"
14,< 100,"Cc1cc(Nc2nccc(C(F)(F)F)n2)cc(-c2cnc(C3(O)CCN(C(N)=O)CC3)s2)c1 [Example 47, 4-hydroxy-4-[5-(3-methyl-5-{[4-(trifluoromethyl)pyrimidin-2-yl]amino}phenyl)-1,3-thiazol-2-yl]piperidine-1-carboxamide]"
15,< 100,"Cc1cc(Nc2nccc(C(F)(F)F)n2)cc(-c2cnc(C3(O)CCN(S(=O)(=O)NC(=O)OC(C)(C)C)CC3)s2)c1 [Example 48, tert-butyl({4-hydroxy-4-[5-(3-methyl-5-{[4-(trifluoromethyl)pyrimidin-2-yl]amino}phenyl)-1,3-thiazol-2-yl]piperidin-1-yl}sulfonyl)carbamate]"
16,< 100,"Cc1cc(Nc2nccc(C(F)(F)F)n2)cc(-c2cnc(C3(O)CCN(S(N)(=O)=O)CC3)s2)c1 [Example 49, 4-hydroxy-4-[5-(3-methyl-5-{[4-(trifluoromethyl)pyrimidin-2-yl]amino}phenyl)-1,3-thiazol-2-yl]piperidine-1-sulfonamide]"
17,100 to 1000,"Cc1cc(Nc2nccc(C(F)(F)F)n2)cc(-c2cnc(C3(O)CCN(S(=O)(=O)c4ccccc4)CC3)s2)c1 [Example 50, 4-[5-(3-methyl-5-{[4-(trifluoromethyl)pyrimidin-2-yl]amino}phenyl)-1,3-thiazol-2-yl]-1-(phenylsulfonyl)piperidin-4-ol]"
